From ChEMBL document CHEMBL1135192, “Translocation of the 5-alkoxy substituent of 2,5-dialkoxyarylalkylamines to the 6-position: effects on 5-HT(2A/2C) receptor affinity” (Bioorg Med Chem Lett, 2002)
pKi: −log10 of the molar value.

How the values were obtained:
[1] = target: T1, 5-hydroxytryptamine receptor 2A (Rattus norvegicus, UniProt P14842); experiment: Compound was evaluated for its ability to displace (+/-)[125I]-DOI from 5-hydroxytryptamine 2A receptor in cloned rat cell culture
[2] = target: T2, 5-hydroxytryptamine receptor 2C (Rattus norvegicus, UniProt P08909); experiment: Compound was evaluated for its ability to displace (+/-)[125I]-DOI from 5-hydroxytryptamine 2C receptor in cloned rat cell culture
T2 sequence (P08909 whole entry): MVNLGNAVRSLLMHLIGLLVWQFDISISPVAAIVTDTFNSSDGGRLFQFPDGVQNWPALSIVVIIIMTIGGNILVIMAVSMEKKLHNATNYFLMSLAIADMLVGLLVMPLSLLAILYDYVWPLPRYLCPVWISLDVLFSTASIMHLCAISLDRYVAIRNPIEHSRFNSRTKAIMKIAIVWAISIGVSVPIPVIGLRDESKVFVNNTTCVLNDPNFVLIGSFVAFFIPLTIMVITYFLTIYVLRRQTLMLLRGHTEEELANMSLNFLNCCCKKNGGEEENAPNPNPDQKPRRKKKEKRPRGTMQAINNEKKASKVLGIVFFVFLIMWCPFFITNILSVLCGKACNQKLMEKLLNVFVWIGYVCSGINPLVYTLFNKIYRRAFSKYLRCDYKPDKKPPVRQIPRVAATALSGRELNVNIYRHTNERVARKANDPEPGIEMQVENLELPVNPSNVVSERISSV

[3] = target: T1, 5-hydroxytryptamine receptor 2A; experiment: biochemical
Description: Compound was evaluated for its ability to displace [125I](R)-DOI from 5-hydroxytryptamine 2A receptor in cloned rat prefrontal cortex homogenate

Rattus norvegicus = species: Rattus norvegicus; experiment: Drug discrimination in LSD-trained rats; assay type: functional

T1 sequence (P14842 whole entry): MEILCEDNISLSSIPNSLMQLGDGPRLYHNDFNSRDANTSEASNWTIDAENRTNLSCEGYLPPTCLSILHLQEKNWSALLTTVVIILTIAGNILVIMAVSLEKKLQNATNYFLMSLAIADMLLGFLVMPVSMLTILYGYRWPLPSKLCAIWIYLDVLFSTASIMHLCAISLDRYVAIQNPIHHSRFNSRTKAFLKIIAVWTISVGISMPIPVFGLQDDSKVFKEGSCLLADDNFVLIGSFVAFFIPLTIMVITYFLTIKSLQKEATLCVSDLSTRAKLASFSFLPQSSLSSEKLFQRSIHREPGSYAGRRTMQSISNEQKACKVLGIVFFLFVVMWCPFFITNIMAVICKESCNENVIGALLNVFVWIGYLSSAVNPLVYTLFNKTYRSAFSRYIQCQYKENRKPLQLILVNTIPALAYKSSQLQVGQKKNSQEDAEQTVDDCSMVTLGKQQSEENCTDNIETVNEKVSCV

Row | SMILES | pKi [1] | pKi [2] | pKi [3] | ED50 (Rattus norvegicus) [µmol/kg]
1 | Cc1c2c(c(CC(C)N)c3c1CCO3)OCC2 (stereo not drawn) | 8.20 | 8.12 | – | –
2 | COc1cc(CC(C)N)c(OC)cc1C (stereo not drawn) [DOM] | – | – | 7.72 | 0.89
3 | Cc1c2ccoc2c(CC(C)N)c2occc12 (stereo not drawn) | 8.74 | 9.05 | – | –
4 | COc1cc(C)cc(OC)c1CC(C)N (stereo not drawn) | 7.31 | 7.30 | – | –
